Assay [1] has as its target T1, purified bovine PACAP receptor protein (Bos taurus, UniProt Q29627).
T1 construct: from tissue; host or cells: bovine cerebrum
T1 sequence (Q29627 38-513): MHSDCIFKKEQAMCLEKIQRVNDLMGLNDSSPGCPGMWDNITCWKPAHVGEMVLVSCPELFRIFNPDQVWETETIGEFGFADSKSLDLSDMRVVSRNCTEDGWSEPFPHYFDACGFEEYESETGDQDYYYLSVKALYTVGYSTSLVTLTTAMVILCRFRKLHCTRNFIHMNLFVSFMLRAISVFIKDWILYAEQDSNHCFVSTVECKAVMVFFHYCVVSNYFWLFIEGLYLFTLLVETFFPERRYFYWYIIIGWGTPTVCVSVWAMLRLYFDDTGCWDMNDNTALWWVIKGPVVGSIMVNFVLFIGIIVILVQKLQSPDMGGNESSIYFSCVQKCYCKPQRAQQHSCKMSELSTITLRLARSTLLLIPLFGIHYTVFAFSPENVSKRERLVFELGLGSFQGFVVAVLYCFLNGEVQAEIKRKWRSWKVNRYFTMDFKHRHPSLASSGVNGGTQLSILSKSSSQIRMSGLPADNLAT
In words: Competitive binding experiment for the purified PACAP receptor protein with [125I]PACAP27. Particulars: vs 100 pM [125I]PACAP27, FIG. 31. How it is done:
(§1) The test sample (membrane fraction or solubilized membrane protein fraction) was appropriately diluted with buffer D (20 mM Tris, 5 mM magnesium chloride, 0.1% BSA and 0.05% digitonin, pH 7.4). […] To 0.1 ml of this reaction solution, 1.5 ml of buffer E (0.1% BSA, 0.05% CHAPS, 20 mM Tris and 5 mM magnesium chloride, pH 7.4) cooled with ice was added, and immediately, the mixed solution is filtered through a glass fiber filter. […] Results of the saturation binding experiment were subjected to Scatchard plot analysis to determine the dissociation constant and the maximum binding.
Analysis results obtained by polyacrylamide electrophoresis for the final purified sample in the presence of sodium dodecylsulfate are shown in FIG. 28. […] This protein having a molecular weight of about 57,000 is the PACAP receptor protein occurring in the bovine cerebrums.

Assay [2] has as its target T2, Bovine PACAP receptor protein (Bos taurus, UniProt Q29627).
T2 construct: The complete primary structure of bovine PACAP receptor protein based on pBPR-T was deduced; expressed in transfected cells; host or cells: CHO cells, pBPR-T in pRc/CMV, G-418 selected
T2 sequence (Q29627 38-513): T1 sequence (Q29627 38-513)
Put plainly: Competitive binding experiment, membrane fraction of bovine PACAP receptor cDNA (pBPR-T)-expressed CHO cells. Particulars: 100 pM [125I]-PACAP27, 25° C., 75 minutes, FIG. 35. As to the method: The transformants (CHO cells) cultivated for 3 days after subculture were separated using 0.2 mM EDTA/phosphate buffer, and suspended in 10 mM sodium carbonate buffer supplemented with 1 mM EDTA, 0.5 mM phenylmethylsulfonyl fluoride (PMSA), 20 μg/ml leupeptin, 4 μg/ml E-64 and 1 μg/ml pepstatin. The suspended cells were disrupted with a Polytron homogenizer (Kinematica). The disrupted product was centrifuged with a high speed cooling centrifuge (CR26H, Roter RR18, Hitachi, Ltd.) at 3,000 rpm for 10 minutes to obtain a supernatant. The resulting supernatant was further ultracentrifuged with an ultracentrifuge (SCP70H, Roter RPZ35T, Hitachi, Ltd.) at 30,000 rpm for 60 minutes to obtain pellets. The resulting pellets were suspended in a buffer [20 mM Tris-HCl (pH 7.4), 0.25 M sucrose, 2 mM EDTa, 0.5 mM PMSF, 20 μg/ml leupeptin and 1 μg/ml pepstatin] to prepare a membrane fraction suspension.
Bound ligands were separated from free ligands through a glass fiber filter. […] The binding was examined with a a γ-ray counter. The dissociation constant and the maximum binding were examined by Scatchard plot analysis (FIG. 34).

Assay [3] concerns the target T2, Bovine PACAP receptor protein. In words: Intracellular cyclic AMP production of bovine PACAP receptor cDNA-expressed CHO cells. Type of assay: cell-based. Particulars: 37° C., 30 minutes, 0.2 mM 3-isobutyl-1-methylxanthine, FIG. 36.
Experimental: Three days after the transformants (CHO cells) were plated on a 24-well plate, the cells were washed with Hank's buffer (composition: 8 g/l NaCl, 0.4 g/l KCl, 0.06 g/l Na2HPO4, 1.0 g/l glucose, 0.2 g/l MgSO4, 0.14 g/l CaCl2 and 0.35 g/l NaHCO3) supplemented with 0.05% BSA, and treated in the presence of 0.2 mM 3-isobutyl-1-methylxanthine at 37° C. for 1 hour. […] After the cells were washed with the above-mentioned Hank's buffer supplemented with 0.05% BSA, intracellular cyclic AMP was extracted by the use of 500 μl of Hank's buffer and 100 μl of 20% perchloric acid, and neutralized with 1.5 M KOH. The amount of cyclic AMP was assayed with a cAMP oxygen immunoassay system (BIOTRAK Amersham).
Assay [4] shares this target. In words: Intracellular inositol phosphate of bovine PACAP receptor cDNA-expressed CHO cells. The assay is classed as cell-based. The following applies: 37° C., 20 minutes, FIG. 37. How it is done: The pathway of signal transmission of inositol phosphate well known as the pathway of signal transmission together with cyclic AMP was examined. […] One hundred microliters of 20% perchloric acid was added thereto to stop the reaction, and intracellular inositol phosphate was extracted. The extract was neutralized with 1.5 M KOH. All inositol phosphate was separated from free inositol by the use of ion exchange chromatography (AGI-X8, Bio RAD). Thereafter, inositol phosphate was eluted with 1 M ammonium formate/0.1 M formic acid, and the amount of inositol phosphate was measured with a scintillation counter.

Assay [5] addresses T3, human PACAP receptor protein (Homo sapiens, UniProt P41586).
T3 construct: expressed in transfected cells; host or cells: CHO-K1 cells (ICN), pTS849 (pRc/CMV), G-418 selected
T3 sequence (P41586 21-468): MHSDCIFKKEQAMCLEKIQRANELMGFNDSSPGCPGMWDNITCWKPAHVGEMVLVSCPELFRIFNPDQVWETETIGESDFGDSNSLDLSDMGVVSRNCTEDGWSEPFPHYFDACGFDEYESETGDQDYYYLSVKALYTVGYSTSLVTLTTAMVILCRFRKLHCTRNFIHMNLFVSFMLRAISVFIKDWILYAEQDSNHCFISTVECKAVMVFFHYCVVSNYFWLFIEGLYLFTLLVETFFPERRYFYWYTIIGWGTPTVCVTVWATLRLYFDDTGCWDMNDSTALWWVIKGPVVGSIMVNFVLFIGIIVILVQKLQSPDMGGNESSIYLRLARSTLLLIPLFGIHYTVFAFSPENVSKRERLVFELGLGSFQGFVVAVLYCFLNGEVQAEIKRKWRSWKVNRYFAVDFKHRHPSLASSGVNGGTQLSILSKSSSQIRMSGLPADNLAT
Put plainly: Competitive inhibition experiment, membrane fraction of human PACAP receptor-expressed CHO-K1 cells. The assay is classed as binding. The following applies: FIG. 47. As to the method: as §1

Assay [6] has as its target T3, human PACAP receptor protein. Put plainly: Intracellular cyclic AMP of human PACAP receptor protein-expressed CHO-K1 cells. Type of assay: cell-based. Particulars: 37° C., 30 minutes, 0.2 mM 3-isobutyl-1-methylxanthine, FIG. 48. As to the method:
After washing twice with Hank's buffer containing the culture buffer, 10 mM HEPES and 0.05% BSA, the CHO-K1 cells were cultivated in the above-mentioned buffer supplemented with 0.2 mM 3-isobutyl-1-methylxanthine at 37° C. for 60 minutes. […] After absorption of the buffer, the cells were washed twice with the culture buffer. Then, cAMP was extracted from the cells with 20% perchloric acid. After transfer to a 1.5-ml Eppendorf tube, the extract was centrifuged with a Tomy microcentrifuge at 12,000 rpm for 5 minutes, and the supernatant was neutralized with 1.5 N KOH/60 mM HEPES to prepare a cell eluted solution. The concentration of cyclic AMP was determined by the acetylation method of a cAMP assay system (Amersham). Under these determination conditions, when nothing was added, the amount of intracellular CAMP was 0.7 pmole/well.

The next assay deals with PACAP receptor. The following applies: unlabeled peptide, tissue membrane fraction; cited from earlier work.
Assay [7] deals with T4, rat PACAP receptor protein Type I-A (pRPR3-A) (Rattus norvegicus, UniProt P32215).
T4 construct: pRPACAPR46 and pRPACAPR5 were recombined at the BamHI site to prepare pRPACAPR46-5 having a complete translation frame; expressed in transfected cells; host or cells: CHO cells, pRPR3-A (pRc/CMV); clone A12 for cAMP
T4 sequence (P32215 20-467 isoform P32215-5 limits assumed): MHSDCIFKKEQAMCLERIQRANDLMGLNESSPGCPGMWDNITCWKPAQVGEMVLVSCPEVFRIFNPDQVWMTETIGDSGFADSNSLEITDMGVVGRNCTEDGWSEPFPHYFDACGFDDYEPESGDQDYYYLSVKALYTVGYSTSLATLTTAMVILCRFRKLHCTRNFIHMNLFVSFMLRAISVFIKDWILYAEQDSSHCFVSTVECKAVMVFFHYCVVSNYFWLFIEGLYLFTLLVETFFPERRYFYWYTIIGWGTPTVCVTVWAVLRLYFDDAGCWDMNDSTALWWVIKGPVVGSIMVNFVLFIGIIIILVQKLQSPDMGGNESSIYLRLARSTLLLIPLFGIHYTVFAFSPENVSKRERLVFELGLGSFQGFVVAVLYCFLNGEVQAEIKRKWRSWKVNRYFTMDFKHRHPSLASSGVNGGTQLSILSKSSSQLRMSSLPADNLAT
In words: Competitive binding with [125I]-PACAP27, membrane fraction of pRPR3-A-introduced CHO cells. Particulars: 100 pM [125I]-PACAP27, 25° C., 1 hour, FIG. 40 (A). As to the method: (§2) The pRPR3-A-introduced and pRPR4-B-introduced CHO cells obtained in (2) described above were each disrupted in sodium carbonate buffer containing 1 mM EDTA, 0.5 mM PMSF, 20 μg/ml leupeptin, 4 μg/ml E-64 and 1 μg/ml pepstatin with a Polytron homogenizer (Kinematica) to prepare membrane fractions. Using the membrane fractions, complex binding experiments were conducted. For each of the membrane fractions of the pRPR3-A-introduced CHO cells and the pRPR4-B-introduced CHO cells, each of 10 μg and 15 μg (converted to a protein amount) thereof was ligated with. […] The reaction was conducted at 25° C. for 1 hour, and bound ligands were separated from free ligands by filtration through a filter. […] The amount of bound ligands was measured with a γ-counter.

Assay [8] concerns the target T5, rat PACAP receptor protein Type I-B (pRPR4-B) (Rattus norvegicus, UniProt P32215).
T5 construct: two kinds of complete primary structures of rat PACAP receptor protein were deduced; expressed in transfected cells; host or cells: CHO cells, pRPR4-B (pRc/CMV); clone B17 for cAMP
T5 sequence (P32215 20-495 isoform P32215-2 limits assumed): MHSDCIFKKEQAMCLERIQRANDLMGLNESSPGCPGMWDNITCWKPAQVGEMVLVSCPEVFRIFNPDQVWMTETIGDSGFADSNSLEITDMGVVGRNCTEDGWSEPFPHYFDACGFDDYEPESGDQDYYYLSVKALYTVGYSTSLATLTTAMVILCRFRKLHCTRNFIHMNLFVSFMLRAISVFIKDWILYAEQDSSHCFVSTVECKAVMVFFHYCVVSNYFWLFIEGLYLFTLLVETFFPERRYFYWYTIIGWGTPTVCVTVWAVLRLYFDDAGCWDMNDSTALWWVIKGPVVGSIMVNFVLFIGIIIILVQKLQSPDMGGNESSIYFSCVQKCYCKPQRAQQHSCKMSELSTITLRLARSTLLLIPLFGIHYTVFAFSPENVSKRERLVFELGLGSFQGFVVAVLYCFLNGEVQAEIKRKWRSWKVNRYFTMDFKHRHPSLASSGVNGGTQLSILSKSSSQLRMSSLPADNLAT
Put plainly: Competitive binding with [125I]-PACAP27, membrane fraction of pRPR4-B-introduced CHO cells. Particulars: 100 pM [125I]-PACAP27, 25° C., 1 hour, FIG. 40 (B). How it is done: as §2

Assay [9] has as its target T4, rat PACAP receptor protein Type I-A (pRPR3-A). Put plainly: Intracellular cyclic AMP of rat PACAP receptor cDNA-introduced CHO cells, strain A12. Type of assay: cell-based. The following applies: CHO strain A12, 37° C., 40 minutes, 0.5 mM IBMX, FIG. 43. As to the method:
(§3) Each 48-well plate for tissue culture was inoculated with each of the cell strains. at a density of 1.0×10^5 cells/well, followed by cultivation for 3 days. The plate was washed twice with Ham's F12 medium supplemented with 0.1% BSA and 0.5 mM IBMX, and 500 μl/well of the same medium was added thereto. […] The supernatant was removed, and extraction was conducted with 100% cold ethanol. The extract was evaporated to dryness with a centrifugal freeze dryer, and redissolved in the buffer attached to an EIA kit for assaying cyclic AMP (Amersham). Then, the amount of cyclic AMP was assayed according to the formulation of the kit.

Assay [10] concerns the target T5, rat PACAP receptor protein Type I-B (pRPR4-B). Put plainly: Intracellular cyclic AMP of rat PACAP receptor cDNA-introduced CHO cells, strain B17. The assay is classed as cell-based. Particulars: CHO strain B17, 37° C., 40 minutes, 0.5 mM IBMX, FIG. 43. As to the method:
as §3

PACAP27: the “reaction with purified PACAP receptor protein in competitive binding experiment” value in assay [1] is given as “reacting”. Moreover, the “reactivity (competition with [125I]-PACAP27)” value in [2] is on record as “high reactivity”. In addition, the “concentration of intracellular cyclic AMP” value in [3] is “increased depending on the concentrations”. Also, in [4], the “concentration of inositol phosphate” value is recorded as “increased depending on the concentrations”. For the same substance, the “competition with [125I]-PACAP27” value in [5] is listed as “competed”. In addition, the “concentration of intracellular cAMP” value in [6] is recorded as “increased depending on the concentrations”. The “inhibition of [125I]PACAP27 binding to the membrane fraction” value (“inhibition … to the membrane fraction” below) with PACAP receptor is listed as “inhibited”.
Regarding “PACAP38: pituitary adenylate cyclase activating polypeptide consisting of 38 amino acid residues, SEQ ID NO: 46-NH2”, the “inhibition … to the membrane fraction” value in the assay on PACAP receptor is listed as “inhibited”.
On to Vasoactive intestinal peptide [VIP], for which the “reaction with purified PACAP receptor protein in competitive binding experiment” value in assay [1] was “not reacting”. Moreover, the “reactivity (competition with [125I]-PACAP27)” value in [2] is “low in reactivity”. Besides, the “competition with [125I]-PACAP27” value in assay [7] and in [8] was “competition was observed only at a concentration much higher than that of PACAP27” throughout. For the same substance, the “production of intracellular cyclic AMP” value in [9] and in assay [10] was “a concentration much higher than that of the PACAPs was required” in each case. In addition, the “weakness relative to PACAP27 in competitive inhibition” value in [5] was 1,000 times. The “concentration of intracellular cAMP” value in assay [6] was “little raised”. Moreover, the “inhibition … to the membrane fraction” value in the assay on PACAP receptor is recorded as “not inhibited”.

(Values after patent US6399316B1, “PACAP receptor protein, method for preparing said protein, and use thereof” (Takeda Chemical Industries, Ltd., priority 1994, dated 2002).)
